From patent US20070270462A1, “8-hydroxyquinoline compounds for treating a polyglutamine (polyQ)-expansion disease” (priority 2005, published 2007)
pEC50: −log10 of the molar value.

Columns and labels:
egfp-alone = experiment: Fluorescence microscopy of transfected PC12 cells expressing egfp alone; type: cell-based; details: CQ 4 μM, 48 hours post-transfection
Source text: (§1) PolyQ-htt-GFP fusion constructs, in which the polyglutamine region is encoded by CAA and CAG-containing tandem repeats ([…]) [SEQ ID NO: 1], human polyglutaminen, were obtained from the Hereditary Disease Foundation, Santa Monica, Calif., USA. PC12 and HEK293 cells were maintained in MEM supplemented with 10% v/v FBS, switched to Opti-MEM without serum for 6 hrs during transfection using Lipofectamine 2000 (Invitrogen, Carlsbad, Calif., USA), and returned to serum-containing medium thereafter (up to 48 hours). […] Control cultures received equivalent amounts of DMSO-containing vehicle (<0.1% w/v DMSO, final concentration).
Concordant with this reduction in mutant protein expression, cell survival was improved by CQ in a dose dependent fashion with a half maximal effect at 1-2 μM (FIG. 2b). Cell death began to increase at 8 μM, likely due to dose-dependent toxic effects of CQ.

[1] = tested on: Htt exon1-Q103-egfp transfected PC12 cells; experiment: cells; type: cell-based
Source text: as §1
Plasma membrane integrity was evaluated using propidium iodide at 20 μg/ml final concentration. Approximately 200 cells transfected with the Htt^exon1-Q103-egf plasmid were counted for each treatment group 48 hr after transfection. Cells were at that time as expanded protein accumulation had reached a plateau, and 90% of cell death occurred by this time point. The experiment was repeated twice and counts were averaged. Counts of transfected cells were averaged from three independent, randomly-selected fields. ImageJ 1.32j (National Institutes of Health, USA), was used to measure the size of the lateral ventricles (n≧6 for each group). […]

Htt exon1-Q103-egfp = experiment: Pulse-chase assay of Htt exon1-Q103-egfp turnover; type: cell-based; details: HEK293 cells, 4 μM CQ
Description: HEK293 cells at 90% confluence on 100 mm plates coated with poly-D-lysine (0.1 μg/μl) were transfected for 4 hr in Opti-MEM medium before replacement of the medium with MEM supplemented with 10% v/v FBS. After another 5 hr incubation, cells were trypsinized and replated in two wells of a 6-well plate, then incubated for another 14 hr at 37° C. The medium was replaced with methionine-free MEM medium supplemented with 5% v/v FBS, and cells incubated for 1.5 hr with 4 μM of CQ or DMSO vehicle added during the last 30 min of incubation. One mCi of Smethionine (Amersham Biosciences, Piscataway, N.J.) in 12 ml of methionine-free MEM was prepared as a pulse stock medium. Cells were pulsed for 10 min by replacing the medium with 1 ml of the pulse stock medium. At different time points, cells were washed twice with ice-cold PBS and lysed in 1 ml of IP lysis buffer (50 mM Tris-HCl, pH 7.5, 150 mM NaCl, 1% v/v NP-40, 0.5% v/v sodium deoxycholate, 1 tab mini-complete protease inhibitor/10 ml buffer). Cells were harvested by scraping, placed in 1.5 ml microcentrifuge tube, and lysed with constant agitation at 4° C. for at least 30 min before immunoprecipitation of the Htt^exon1-Q103-egfp protein using anti-polyglutamine antibody and protein G agarose beads (Roche, Indianapolis, Ind., USA). Assays were performed at least three times. […]

R6/2 mice = experiment: Lateral ventricle area (striatal atrophy) in R6/2 mice; type: in vivo, mouse; details: 11-week old, oral CQ 30 mg/kg/day, versus sham treatment group
Description: A colony of transgenic mice strain R6/2 that is heterozygous for htt exon1 (containing 145 CAG repeats) was maintained, with founders originating and available from The Jackson Laboratory (Bar Harbor, Me., USA). Male transgenic R6/2 mice were bred with background strain (B6CBAFI/J) females. Genotyping was done according to Hockly et al, Brain Res Bull 61, 469-479, 2003. CQ in water was orally administered to mice at 30 mg/kg/day starting at 3 weeks of age and continued until the mice were deceased or sacrificed for tissues. Littermate R6/2 mice were gavaged with water vehicle alone. At the end of CQ treatment mice were anesthetized and transcardially perfused with PBS followed by 4% v/v paraformaldehyde. Blood glucose levels were determined after at least 8 hrs of fasting in 11-week old mice (n=6 for wild-type, n=4 for vehicle-treated R6/2, n=6 for CQ-treated R6/2 littermates) using a 2300 STAT Plus glucose analyzer (YSI, Yellowsonte, Ohio, USA). Fasting blood insulin levels in animals fasted for 8 hrs were measured using an Ultra Sensitive Rat Insulin ELISA Kit (Crystal Chem, Inc., Downers Grove, Ill., USA) according to manufacturer's instructions.
Plasma membrane integrity was evaluated using propidium iodide at 20 μg/ml final concentration. Approximately 200 cells transfected with the Htt^exon1-Q103-egf plasmid were counted for each treatment group 48 hr after transfection. […]

`Oc1c(I)cc(Cl)c2cccnc12` [CQ, 5-chloro-7-iodo-8-hydroxy-quinoline] was tested, and the “fluorescent product of egfp-alone” value (egfp-alone) was “unaffected”, the pEC50 ([1]; Rattus norvegicus, PC-12, Htt exon1-Q103-egfp cells, PI staining, 48 hr after transfection, read-out: cell survival improvement, half maximal effect) was 5.70 to 6.00 and the “CQ concentration at which cell death began to increase (toxic effects of CQ)” value ([1]; rat, 48 h) was 8 µM. For the same compound, the “rates of Q103-egfp degradation in the presence of CQ” value (Htt exon1-Q103-egfp) was “No significant differences” and the “reduction of lateral ventricle area” value (R6/2 mice) was 55%.
